Like-named read-outs stand apart in the source and are kept apart here. Bridge positions count the residues as written; N and C are the ends. Ends that are not written are not given here. I, II: the chains in the order shown.
Key:
[1] = test system: miR-132; assay: Knockdown of miR-132 by antagomir-132 nanoparticles in mouse eyes; format: in vivo; conditions: QPCR
Procedure: FIG. 4. Knockdown of miR-132 by antagomir-132 nanoparticles in mouse eyes. […] One way ANOVA with Bonferroni's post hoc test was used to calculate the level of significance. P≤0.05 (*). Six corneas were collected and pooled for analysis by QPCR or WB. (B) Antagomir-132 and scrambled sequences were injected in HSV infected mice subconjunctively and the quantification of RasGAP mRNA from corneas isolated from different groups was carried out (n=6 mice/group). The level of significance was determined by student's t test (unpaired). ***P≤0.001.
One way ANOVA with Bonferroni's post hoc test was used to calculate the level of significance. P≤0.05 (*). Six corneas were collected and pooled for analysis by QPCR or WB. (B) Antagomir-132 and scrambled sequences were injected in HSV infected mice subconjunctively and the quantification of RasGAP mRNA from corneas isolated from different groups was carried out (n=6 mice/group). The level of significance was determined by student's t test (unpaired). ***P≤0.001 (FIG. 4).

[2] = test system: mTOR; assay: Selection of potent siRNA targeting mTOR, transfection and qRT-PCR, CT26; format: cell-based; conditions: mouse CT26 cells, qRT-PCR
Description: (§1) FIG. 3. Selection of potent siRNA targeting mTOR. (A) The lower panel illustrates selection of eight 25 mer siRNA duplexes with control siRNA were transfected into human MDA-MB-231 cells and mouse CT26 cells. 24 hr later, mRNA was collected and subject to Q-RT-PCR with the standard control gene target Rigs15.
(§2) For mTOR siRNA selection, we first use in silico screening selected 8 siRNA sequences for siRNA oligo synthesis. And then we transfected these siRNAs into human MDA-MB-231 cells and mouse CT26 cells. Twenty-four hours later, the total mRNA collected and subjected to qRT-PCR analysis with the standard control gene target Rigs15. From FIG. 3 we can see that the potent siRNA duplexes targeting mTOR (both human and mouse mRNAs) was selected.
(§3) We have identified potent mTOR specific siRNA through cell culture studies with human breast cancer cell line MDA-MB-231 and mouse CT26 cells, followed by qRT-PCR analyses: mTOR-siRNA: […]

[3] = test system: Panc-1 cells; assay: Effect of forward transfection with mTOR siRNA on chemosensitivity of Panc-1 cells to GEM-TCA; format: cell-based, human; conditions: mTOR-siRNA 10 nM and 20 nM; GEM-TCA 12.3 nM to 1 μM; 72 h; vs non-targeting siRNA
Procedure: FIG. 9. Effect of forward transfection with mTORsiRNA on chemosensitivity of Panc-1 cells to […] 5×10^3 Panc-1 cells were seeded on the wells of 96-well plate in 100 ul of DMEM/10% FBS. The next day cells were transfected with siRNA/Lipofectamine 2000 complexes accordingly to the manufactures' recommendations. In 5-6 h. medium was changed. The next day various concentrations of […] were applied to the transfected cells. At 72 h post chemical exposure cytotoxicity was assessed with Cell Titer-Glo Luminescent cell viability assay (Promega). Values derived from untreated cells (Blank) were set as 100%. All values represent the mean of ±S.D. of four replicates for each dilution. * different from cells transfected with control, not-targeting siRNA (p<0.05, Student's t test)
To realize the original hypothesis that the oncogenic gene target knockdown may induce a chemosensitivity of Panc-1 cell toward to […], the experiment was conducted with following procedures. 5×10^3 Panc-1 cells were seeded on the wells of 96-well plate in 100 ul of DMEM/10% FBS. The next day cells were transfected with siRNA/Lipofectamine 2000 complexes accordingly to the manufactures' recommendations. In 5-6 h. medium was changed. […] At 72 h post chemical exposure cytotoxicity was assessed with Cell Titer-Glo Luminescent cell viability assay (Promega). […]

[4] = test system: Panc-1 cells; assay: Effect of TGF-β1siRNA and mTORsiRNA on chemosensitivity of Panc-1 cells to low dose GEM-TCA; format: cell-based, human; conditions: 48 h; for maximum cell killing: siRNA 30 nM plus GEM-TCA up to 1 μM; for sensitization of Panc-1 cells to GEM-TCA: siRNA 30 nM
Procedure: FIG. 10. Effect of forward transfection with TGF-β1siRNA and mTORsiRNA chemosensitivity of Panc-1 cells to […] The next day, the medium was supplemented with 3.9 nM-1000 nM […] diluted in the same medium. At 48 h post chemical exposure cytotoxicity was assessed with Cell Titer-Glo Luminescent cell viability assay (Promega). Values derived from untreated cells (Blank) were set as 100%. All values represent the mean of ±S.D. of four replicates for each dilution. Paired sample two-tailed Student's t-test was used to determine significance.
. At 48 h post chemical exposure cytotoxicity was assessed with Cell Titer-Glo Luminescent cell viability assay (Promega). Values derived from untreated cells (Blank) were set as 100%. All values represent the mean of ±S.D. of four replicates for each dilution. Paired sample two-tailed Student's t-test was used to determine significance. The TGF-β1siRNA was previously identified and validated with multiple in vitro and in vivo assays: […]

[5] = test system: mTOR; assay: Selection of potent siRNA targeting mTOR, transfection and qRT-PCR, MDA-MB-231; format: cell-based; conditions: human MDA-MB-231 cells, qRT-PCR
Description: as §1, §2, §3

[6] = -NH2 of Gemcitabine; cited from earlier work
[7] = cited from earlier work
[8] = test system: LX-1, CALU-6, NCI-H460, NCI-H520 human lung xenografts; conditions: cited from earlier work
[9] = test system: Lewis lung murine xenograft; conditions: cited from earlier work
[10] = test system: Panc-1 cells; assay: Dosage-dependent cytotoxicities of Gemcitabine and GEM-HKP conjugate, Cell Titer-Glo; format: cell-based, human; conditions: Panc-1, 72 hrs post treatment
Procedure: FIG. 21. Dosage-Dependent Cytotoxicities of Gemcitabine and GEM-HKP conjugate in the Panc-1 cell culture, at 72 hrs post treatments After exposures of the Panc-1 cells to Gemcitabine only, GEM-HKP conjugate, the cytotoxicities of each treatment was assessed with a “Cell Titer-Glo Luminescent cell viability assay” (Promega). Values derived from untreated cells (Blank) were set as 100%. All values represent the mean of ±S.D. of four replicates for each dilution. In this study, the HKP concentration at each point equals to its concentration in the Gem/HKP.

## Antagomir-132: modified RNA oligo targeting miR-132 (accguggcuuucgauuguuacu), packaged with HKP into nanoparticles (antisense ACCGUGGCUUUCGAUUGUUACU; chemically modified, pattern not given here, packaged with HKP into nanoparticles)
[1]
  miR-132 knockdown in the corneas: peak miR-132 knockdown

## mTOR-siRNA: 25mer siRNA duplex specific to mTOR mRNA; sense 5′-r(GGUCUGGUGCCUGGUCUGAUGAUGU)-3′ in b114 (sense CACUACAAAGAACUGGAGUUCCAGA; antisense UCUGGAACUCCAGUUCUUUGUAGUG; further chemistry not given here)
[2]
  mTOR silencing potency: potent
[3]
  tumor cell killing by GEM-TCA after siRNA transfection: significantly improved
[4]
  maximum cell killing: 60%
[4]; GEM-TCA 3.9 nM
  sensitization of Panc-1 cells to GEM-TCA: significantly sensitize
[4]; GEM-TCA 15.6 nM
  sensitization of Panc-1 cells to GEM-TCA: sensitization effect was disappeared
[5]
  mTOR silencing potency: potent

## Nc1ccn([C@@H]2O[C@H](CO)[C@@H](O)C2(F)F)c(=O)n1 [Gemcitabine, 2′,2′-difluorodeoxycytidine]
[6]
  pKa: ~2.8
[7]
  activity with cisplatin in vitro: dose-dependent synergistic activity
[8]; LX-1 and CALU-6 human lung xenografts
  activity in combination with cisplatin: showed activity
[8]; NCI-H460 or NCI-H520 xenografts
  activity in combination with cisplatin: minimal activity
[9]
  interaction with cisplatin: synergistic

## TGF-β1siRNA: siRNA duplex to TGF-β1; sense 5′-r(CCUCAAUUCAGUCUCUCAUCUGCAA)-3′ in b118 (sense CCCAAGGGCUACCAUGCCAACUUCU; antisense AGAAGUUGGCAUGGUAGCCCUUGGG; chemistry not given here)
[4]
  maximum cell killing: 60%
[4]; GEM-TCA 3.9 nM
  sensitization of Panc-1 cells to GEM-TCA: significantly sensitize
[4]; GEM-TCA 62.5 nM
  sensitization of Panc-1 cells to GEM-TCA: sensitization effect was still significant

## I: KHHHKHHHKHHHKHHHKKKK-NH2 / II: KHHHKHHHKHHHKHHHK / III: KHHHKHHHKHHHKHHHK / IV: KHHHKHHHKHHHKHHHK (amide I:18-IV:C, I:19-III:C, I:20-II:C) [HKP]
[10]
  cytotoxicity: no cytotoxicity

Source: patent US20200108089A1, “Gemcitabine Derivatives for Cancer Therapy” (Suzhou Sirnaomics Biopharmaceuticals Co., Ltd., priority 2017, published 2020)
